{
  "source": "patent US6455558B1",
  "about": "“Biocide composition and use” (Avecia Limited, priority 1998, dated 2002)",
  "tested_on": "mixed inoculum of Aureobasidium pullulans, Fusarium solani, Penicillium funicularum, Scopulariopsis brevicaulis and Streptoverticillium waksmanii",
  "test": "Soil burial test of plasticised PVC strips containing biocide: weight loss after 20 weeks",
  "note": "Where “and” joins values, the source holds several entries; their conditions need not be identical. Identical values can stand only once.",
  "data": [
    {"compound": "CCCCCCCCn1sccc1=O", "note": "[OIT, N-n-octyl isothiazolin-3-one]", "values": [
      {"measurement": "Actual % Weight Loss", "result": "3.47% and 4.516% and 4.992% and 5.465%"}
    ]},
    {"compound": "Zinc Omadine [ZO]", "values": [
      {"measurement": "Actual % Weight Loss", "result": "4.011% and 3.557% and 3.318% and 2.179%"}
    ]}
  ]
}
